Converted amounts (≈) assume the structure as drawn. “Also recorded” adds a separate entry of the source. Read-outs that look alike come from different tables or passages of the source.
What was measured:
[1] = system: rodents; conditions: oral; cited from earlier work
[2] = system: humans; conditions: based on intravenous infusion studies; cited from earlier work
[3] = system: philtrum skin; experiment: philtrum skin cooling bioassay; assay type: in vivo, human; conditions: for cooling activity AUC in (R)-1,2-propanediol / cooling activity AUC in racemic-1,2-propanediol: ± S.E.M.; for cooling effect: applied to the philtrum
Source text: The term “alcoholic solvent” refers to a chemical with one to four carbons with at least one hydroxyl group attached to a carbon atom. A reliable place for topical application is the skin above the upper lip (above the vermilion border of the lips), on the philtrum, lateral to the philtrum until the nasolabial folds, and on the lower nostrils (subnasale). This part of the face is known to be densely innervated with cold receptors, second only to the surfaces of the eyeball and anogenitalia. Tingling, cool and cold sensations from the skin may be experienced and rated for time of onset and intensity.
The intervals for recording sensations are 5 to 10 minutes, until two successive zeroes are obtained. The results (shown in the Figures) are averaged values of 4 to 6 separate trials in the same individual. The data are plotted using SigmaPlot (Systat Software, Point Richmond Calif.) and a smoothing function with a negative exponential was used for analysis and statistical fit of the results. The onset of drug action is taken as the time to reach 2 units of coolness intensity, and offset of drug action is the time when coolness intensity drops below 2, after previously surpassing 2 units. The duration of cooling action is defined as the offset time minus the onset time and the primary index of effect. […]
Using a cotton-tipped applicator (e.g. Q-tips®) 0.10 to 0.25 ml of the test solution was applied to the skin above the upper lip, on the philtrum, and lateral to the philtrum up to the nasolabial folds, and the onset and duration of cooling sensations noted. […] The interval for recording sensations was at 5 to 10 minute intervals, until at least two successive zeroes were obtained. The results were averaged values of 3 to 6 separate trials in the same individual. The “onset” is the time taken to reach a coolness intensity value of 2. […] The “off-set” is when the coolness intensity drops below 2, and the duration is the time of off-set minus the time of onset. The area under the curve (AUC) also gives an estimate of the intensity and duration of drug action and can be obtained from the plotted data using SigmaPlot (Systat Software, Point Richmond Calif.). The AUC is given in average ±S.E.M. units which is the product of cooling intensity×min.

[4] = system: tongue; conditions: average for 6 subjects, filter paper on dorsal tongue, 30 seconds; cited from earlier work
[5] = solubility in solvents; assay type: physicochemical; conditions: organic solvent or mixture
Method: Many cooling agents are more soluble in ethanol than in 1,2-propanediol. For example, W-3 and CPS-369 are soluble in absolute ethanol at >300 mg/ml and >500 mg/ml, respectively. These compounds are less soluble in 1,2-propanediol, with solubilities of about 10 mg/ml at standard conditions. To formulate liquid compositions of cooling agents, it is convenient to use up to 5% of ethanol in the total volume to dissolve the cooling agent and then add the rest as (R)-1,2-propanediol to complete the formulation without significant loss of cooling actions.

[6] = system: itch (contact dermatitis) on the scalp; experiment: scalp itch (contact dermatitis) case, topical application; assay type: in vivo, human; conditions: for sensations of coolness after application to scalp: 5 mg/ml in 1% ethanol-99% (R)-1,2-propanediol, droplet delivery; for itch after two days of applications: applications spaced approximately 10 hours apart, scalp
Method: An individual developed intense itch (contact dermatitis) on the scalp at the base of the skull after use of hair dye. A cotton-tipped stick was used to apply CPS-410 or CPS-412, 5 mg/ml dissolved in a 1% ethanol-99% (R)-1,2-propanediol, to the site of itch. The itch sensations were suppressed within 5 min of application of either solution and this effect lasted for at least 8 hr. In a second experiment, the solutions were applied using a plastic bottle with a conical Yorker spout. This allowed more precise droplet delivery of the solution to the site of itch. […] The advantage of liquid formulation is the ease of uniform delivery to the inflamed site, a method not achievable with cream or ointment. Itch symptoms of hair and fur occur in seborrheic dermatitis, psoriasis, insect bites, canine pruritus, and allergic dermatitis. Liquid formulations containing (R)-1,2-propanediol and a cooling agent may be therapeutically valuable in these conditions.

[7] = biological target: TRP-M8 receptor (Homo sapiens, UniProt Q7Z2W7); conditions: cited from earlier work
Sequence of TRP-M8 receptor (Q7Z2W7 whole entry): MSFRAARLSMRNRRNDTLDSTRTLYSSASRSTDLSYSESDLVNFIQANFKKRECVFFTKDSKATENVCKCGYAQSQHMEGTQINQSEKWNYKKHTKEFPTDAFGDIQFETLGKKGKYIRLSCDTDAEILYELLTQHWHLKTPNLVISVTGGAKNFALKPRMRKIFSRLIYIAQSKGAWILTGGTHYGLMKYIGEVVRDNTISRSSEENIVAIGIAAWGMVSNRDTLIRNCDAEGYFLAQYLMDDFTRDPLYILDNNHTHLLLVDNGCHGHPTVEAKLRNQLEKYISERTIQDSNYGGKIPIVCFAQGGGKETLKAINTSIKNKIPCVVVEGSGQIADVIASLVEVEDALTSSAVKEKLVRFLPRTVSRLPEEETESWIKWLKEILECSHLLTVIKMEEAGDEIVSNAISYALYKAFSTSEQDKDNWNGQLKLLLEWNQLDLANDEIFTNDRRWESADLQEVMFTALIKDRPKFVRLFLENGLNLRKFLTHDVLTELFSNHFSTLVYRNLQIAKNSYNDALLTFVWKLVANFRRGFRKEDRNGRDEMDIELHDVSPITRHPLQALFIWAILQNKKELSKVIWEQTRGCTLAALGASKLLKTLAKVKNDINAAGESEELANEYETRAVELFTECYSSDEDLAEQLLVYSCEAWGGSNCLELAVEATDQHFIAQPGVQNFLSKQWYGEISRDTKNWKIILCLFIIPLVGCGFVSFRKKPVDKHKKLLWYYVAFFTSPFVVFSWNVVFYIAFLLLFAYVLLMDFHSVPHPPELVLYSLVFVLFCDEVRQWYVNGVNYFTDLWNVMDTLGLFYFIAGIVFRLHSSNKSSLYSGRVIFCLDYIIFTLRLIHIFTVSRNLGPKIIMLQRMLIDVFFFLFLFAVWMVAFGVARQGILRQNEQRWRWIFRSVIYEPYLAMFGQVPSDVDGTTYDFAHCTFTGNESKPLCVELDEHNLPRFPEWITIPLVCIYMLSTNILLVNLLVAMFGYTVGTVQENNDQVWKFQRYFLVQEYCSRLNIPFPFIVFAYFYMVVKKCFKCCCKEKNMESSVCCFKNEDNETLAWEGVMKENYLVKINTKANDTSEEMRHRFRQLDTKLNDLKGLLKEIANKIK

[8] = system: axillary skin lesion of plaque psoriasis; experiment: plaque psoriasis case, axillary skin lesion itch and burning; assay type: in vivo, human; conditions: same patient, subsequent treatment
Source text: A person with an 8-year history of plaque psoriasis complained of an axillary skin lesion that itched, had burning sensations, and kept them awake at night. Their condition was severe and chronic. Their parent complained that they had to vacuum their bedroom every day in order to remove flaking skin debris. […] They volunteered to try CPS-148, 2% dissolved in 1% ethanol-99% (R)-1,2-propanediol, and was given instructions on how to apply the solution to their site of itch with a swab stick (Q-tip™). They claimed after the first time of application at night the burning sensations and itch disappeared within 5 to 10 min and they were able to have a good night's sleep. They continued to use the solution on an “as-needed basis” for one month and claimed that they slept much better than before.

[9] = CPS-369 at 10 mg/ml dissolved in the named solvent, applied to philtrum skin, based on AUC, inactive = coolness intensity did not exceed 2 units
[10] = absolute ethanol, read-out: solubility in absolute ethanol
[11] = 1,2-propanediol, standard conditions, read-out: solubility in 1,2-propanediol
[12] = 5 mg/ml, (R)-1,2-propanediol with 1% ethanol vol/vol, philtrum
[13] = 5 mg/ml, racemic 1,2-propanediol with 1% ethanol vol/vol, philtrum

For `CC(O)CO` (racemic) [racemic 1,2-propanediol, 1,2-propanediol], the median lethal dose [1] is given as “about 25 ml/kg of body weight” and the “estimated “safe” dose” value [2] is given as 1 g per kg body weight per day.

In the case of `CC(O)CCO` (racemic) [racemic 1,3-butanediol, 1,3-butanediol], the “Cooling Activity % (relative to (R)-1,2-propanediol)” value [3, 9] is reported as 10% and the “Cooling Activity % (relative to (R)-1,2-propanediol)” value ([3]; in vivo) is reported as “significant loss of cooling activity”.

In the case of `CC1CCC(C(C)C)C(O)C1` (single isomer, unassigned; (-)) [(−)-menthol], the “Threshold (amount producing cooling sensations on the tongue), average” value [4] is given as 0.25 µg.

For `OCCCO` [1,3-propanediol], the “Cooling Activity % (relative to (R)-1,2-propanediol)” value [3, 9] was “significant loss of cooling activity; also recorded: inactive”.

With `C[C@H](O)CO` [(S)-1,2-propanediol] the “Cooling Activity % (relative to (R)-1,2-propanediol)” value [3, 9] was 47%.

For `CCCCCCP(=O)(C(C)CC)C(C)CC` (stereo not drawn) [CPS-147, 1-(Di-sec-butyl-phosphinoyl)-hexane], the “cooling activity AUC in (R)-1,2-propanediol” value ([3]; 3 mg/ml, (R)-1,2-propanediol with 2% ethanol vol/vol, philtrum) was 81 ± 4 cooling intensity × min and the “cooling activity AUC in racemic-1,2-propanediol” value ([3]; 3 mg/ml, racemic 1,2-propanediol with 2% ethanol vol/vol, philtrum) was 64 ± 4 cooling intensity × min.

With `CCCCCCCP(=O)(C(C)CC)C(C)CC` (stereo not drawn) [CPS-148, 1-(Di-sec-butyl-phosphinoyl)-heptane] the “cooling activity AUC in (R)-1,2-propanediol” value ([3]; 2 mg/ml, (R)-1,2-propanediol with 1% ethanol vol/vol, philtrum) was 173 ± 15 cooling intensity × min and the “cooling activity AUC in racemic-1,2-propanediol” value ([3]; 2 mg/ml, racemic 1,2-propanediol with 1% ethanol vol/vol, philtrum) was 75 ± 6 cooling intensity × min.

For `CCOC(=O)[C@@H](C)NC(=O)[C@@H]1C[C@H](C)CC[C@H]1C(C)C` [CPS-369, (R)-2-[((1R,2S,5R)-2-isopropyl-5-methyl-cyclohexanecarbonyl)-amino]-propionic acid ethyl ester], the solubility [5, 10] was over 500000 µg/mL, the solubility [5, 11] was about 10000 µg/mL (≈ 35.3 mM) and the “cooling activity AUC in (R)-1,2-propanediol” value [3, 12] was 218 ± 12 cooling intensity × min. For the same compound, the “cooling activity AUC in racemic-1,2-propanediol” value [3, 13] was 134 ± 16 cooling intensity × min.

With `CCCOC(=O)[C@@H](C)NC(=O)[C@@H]1C[C@H](C)CC[C@H]1C(C)C` [CPS-410, (R)-2-[((1R,2S,5R)-2-isopropyl-5-methyl-cyclohexanecarbonyl)-amino]-propionic acid n-propyl ester] the “sensations of coolness after application to scalp” value [6] was “produced sensations of coolness”, the “itch after two days of applications” value [6] was “no longer present” and the “cooling activity AUC in (R)-1,2-propanediol” value [3, 12] was 281 ± 7 cooling intensity × min. For the same compound, the “cooling activity AUC in racemic-1,2-propanediol” value [3, 13] was 122 ± 12 cooling intensity × min.

In the case of `CCCCOC(=O)[C@@H](C)NC(=O)[C@@H]1C[C@H](C)CC[C@H]1C(C)C` [CPS-412, (R)-2-[((1R,2S,5R)-2-isopropyl-5-methyl-cyclohexanecarbonyl)-amino]-propionic acid n-butyl ester], the “sensations of coolness after application to scalp” value [6] is reported as “less noticeable”, the “itch after two days of applications” value [6] is reported as “no longer present” and the “cooling activity AUC in (R)-1,2-propanediol” value [3, 12] is reported as 243 ± 5 cooling intensity × min. For the same compound, the “cooling activity AUC in racemic-1,2-propanediol” value [3, 13] was 127 ± 10 cooling intensity × min.

For `C[S+](C)[O-]` [Dimethylsulfoxide], the “in vitro inhibition of TRP-M8 response relative to alcohols” value ([7]; Benedikt et al. 2007) is given as “less inhibitory”.

In the case of `CCNC(=O)C1CC(C)CCC1C(C)C` (stereo not drawn) [WS-3, 2-Isopropyl-5-methyl-cyclohexanecarboxylic acid ethylamide], the solubility [5, 10] is reported as over 300000 µg/mL, the solubility [5, 11] is reported as about 10000 µg/mL (≈ 47.3 mM) and the cooling effect ([3]; 20 mg/ml in absolute ethanol) is reported as “did not produce significant cooling”. The “cooling activity AUC in (R)-1,2-propanediol” value ([3]; 20 mg/ml, (R)-1,2-propanediol with 3% ethanol vol/vol, philtrum) was 122 ± 8 cooling intensity × min and the “cooling activity AUC in racemic-1,2-propanediol” value ([3]; 20 mg/ml, racemic 1,2-propanediol with 3% ethanol vol/vol, philtrum) was 64 ± 6 cooling intensity × min.

With `CCOC(=O)CNC(=O)[C@@H]1C[C@H](C)CC[C@H]1C(C)C` [WS-5, [((1R,2S,5R)-2-isopropyl-5-methyl-cyclohexanecarbonyl)-amino]-acetic acid ethyl ester] the cooling effect ([3]; 10 mg/ml in 100% ethanol) was “did not produce any cooling effect”.

In the case of `CCO` [ethanol], the “TRP-M8 receptor response to (−)-menthol” value ([7]; 3% concentration of ethanol) is listed as “almost totally lost” and the “Cooling Activity % (relative to (R)-1,2-propanediol)” value [3, 9] is listed as “loss of cooling activity; also recorded: inactive”.

With `CC(C)O` [isopropanol] the “Cooling Activity % (relative to (R)-1,2-propanediol)” value [3, 9] was “loss of cooling activity; also recorded: inactive”.

For (R)-1,2-propanediol, the “reversal of ethanol inhibition of WS-5 cooling” value ([3]; added at 10%, 20% and 40% vol/vol to ethanolic solution of WS-5 10 mg/ml, philtrum) was “reversed the ethanol inhibition in a dose-dependent relationship”.

For Enbrel®, the “psoriatic condition after a course of treatment” value [8] was “improved considerably”.

In the case of n-propanol, the “Cooling Activity % (relative to (R)-1,2-propanediol)” value [3, 9] is reported as “loss of cooling activity; also recorded: inactive”.

— US8529915B2, “(R)-(-)-1,2-propanediol compositions and methods” (priority 2010, dated 2013)
